Measured values as given in ChEMBL document CHEMBL4804286, “3-amino-4-(4-(4 (dimethylcarbamoyl) phenyl)-1,4-diazepan-1-yl) thieno [2,3-b] pyridine-2-carboxamide for use in cancer therapy and formulations comprising the same” (2020).
Where “and” joins values, the source holds several entries; their conditions need not be identical. Equal entries are not always repeated. Calls of active or inactive are those of the source. The calls are words filed in the database; no cut-off is given here.

Key:
[1] = target: Aurora kinase A (Homo sapiens) (UniProt O14965); assay: Inhibition of human AURKA assessed as percent of control at 2000 nM by KINOMEscan assay relative to control; set-up: scale not given: the % may be the effect or the level left
[2] = target: Bone morphogenetic protein receptor type-1A (Homo sapiens) (UniProt P36894); assay: Inhibition of human BMPR1A assessed as percent of control at 2000 nM by KINOMEscan assay relative to control; set-up: scale not given: the % may be the effect or the level left
[3] = target: Calcium/calmodulin-dependent protein kinase type 1D (Homo sapiens) (UniProt Q8IU85); assay: Inhibition of human CAMK1D assessed as percent of control at 2000 nM by KINOMEscan assay relative to control; set-up: scale not given: the % may be the effect or the level left
[4] = target: Cyclin-dependent kinase-like 1 (Homo sapiens) (UniProt Q00532); assay: Inhibition of human CDKL1 assessed as percent of control at 2000 nM by KINOMEscan assay relative to control; set-up: scale not given: the % may be the effect or the level left
[5] = target: Citron Rho-interacting kinase (Homo sapiens) (UniProt O14578); assay: Inhibition of human CIT assessed as percent of control at 2000 nM by KINOMEscan assay relative to control; set-up: scale not given: the % may be the effect or the level left
[6] = target: Casein kinase I isoform alpha-like (Homo sapiens) (UniProt Q8N752); assay: Inhibition of human CSNK1A1L assessed as percent of control at 2000 nM by KINOMEscan assay relative to control; set-up: scale not given: the % may be the effect or the level left
[7] = target: Serine/threonine-protein kinase DCLK1 (Homo sapiens) (UniProt O15075); assay: Inhibition of human DCAMKL1 assessed as percent of control at 2000 nM by KINOMEscan assay relative to control; set-up: scale not given: the % may be the effect or the level left
[8] = target: Serine/threonine-protein kinase DCLK2 (Homo sapiens) (UniProt Q8N568); assay: Inhibition of human DCAMKL2 assessed as percent of control at 2000 nM by KINOMEscan assay relative to control; set-up: scale not given: the % may be the effect or the level left
[9] = target: Mitogen-activated protein kinase kinase kinase 12 (Homo sapiens) (UniProt Q12852); assay: Inhibition of human DLK assessed as percent of control at 2000 nM by KINOMEscan assay relative to control; set-up: scale not given: the % may be the effect or the level left
[10] = target: Serine/threonine-protein kinase 17A (Homo sapiens) (UniProt Q9UEE5); assay: Inhibition of human DRAK1 assessed as percent of control at 2000 nM by KINOMEscan assay relative to control; set-up: scale not given: the % may be the effect or the level left
[11] = test system: Epidermal growth factor receptor (Homo sapiens), P00533 [G719S]; assay: Inhibition of human EGFR G719S assessed as percent of control at 2000 nM by KINOMEscan assay relative to control; set-up: scale not given: the % may be the effect or the level left
[12] = test system: Epidermal growth factor receptor (Homo sapiens), P00533 [T790M]; assay: Inhibition of human EGFR T790M mutant assessed as percent of control at 2000 nM by KINOMEscan assay relative to control; set-up: scale not given: the % may be the effect or the level left
[13] = target: Tyrosine-protein kinase JAK1 (Homo sapiens) (UniProt P23458); assay: Inhibition of human JAK1 JH1 catalytic domain assessed as percent of control at 2000 nM by KINOMEscan assay relative to control; set-up: scale not given: the % may be the effect or the level left
[14] = target: LIM domain kinase 2 (Homo sapiens) (UniProt P53671); assay: Inhibition of human LIMK2 assessed as percent of control at 2000 nM by KINOMEscan assay relative to control; set-up: scale not given: the % may be the effect or the level left
[15] = target: Mitogen-activated protein kinase kinase kinase 13 (Homo sapiens) (UniProt O43283); assay: Inhibition of human LZK assessed as percent of control at 2000 nM by KINOMEscan assay relative to control; set-up: scale not given: the % may be the effect or the level left
[16] = target: Serine/threonine-protein kinase MAK (Homo sapiens) (UniProt P20794); assay: Inhibition of human MAK assessed as percent of control at 2000 nM by KINOMEscan assay relative to control; set-up: scale not given: the % may be the effect or the level left
[17] = target: Dual specificity mitogen-activated protein kinase kinase 3 (Homo sapiens) (UniProt P46734); assay: Inhibition of human MEK3 assessed as percent of control at 2000 nM by KINOMEscan assay relative to control; set-up: scale not given: the % may be the effect or the level left
[18] = target: Cyclin-dependent kinase 14 (Homo sapiens) (UniProt O94921); assay: Inhibition of human PFTK1 assessed as percent of control at 2000 nM by KINOMEscan assay relative to control; set-up: scale not given: the % may be the effect or the level left
[19] = target: Phosphorylase b kinase gamma catalytic chain, skeletal muscle/heart isoform (Homo sapiens) (UniProt Q16816); assay: Inhibition of human PHKG1 assessed as percent of control at 2000 nM by KINOMEscan assay relative to control; set-up: scale not given: the % may be the effect or the level left
[20] = test system: Phosphatidylinositol 4,5-bisphosphate 3-kinase catalytic subunit alpha isoform (Homo sapiens), P42336 [E545K]; assay: Inhibition of human PIK3CA E545K mutant assessed as percent of control at 2000 nM by KINOMEscan assay relative to control; set-up: scale not given: the % may be the effect or the level left
[21] = target: Serine/threonine-protein kinase PLK3 (Homo sapiens) (UniProt Q9H4B4); assay: Inhibition of human PLK3 assessed as percent of control at 2000 nM by KINOMEscan assay relative to control; set-up: scale not given: the % may be the effect or the level left
[22] = target: Protein kinase C theta type (Homo sapiens) (UniProt Q04759); assay: Inhibition of human PRKCQ assessed as percent of control at 2000 nM by KINOMEscan assay relative to control; set-up: scale not given: the % may be the effect or the level left
[23] = target: Serine/threonine-protein kinase SIK3 (Homo sapiens) (UniProt Q9Y2K2); assay: Inhibition of human QSK assessed as percent of control at 2000 nM by KINOMEscan assay relative to control; set-up: scale not given: the % may be the effect or the level left
[24] = target: Serine/threonine-protein kinase SIK2 (Homo sapiens) (UniProt Q9H0K1); assay: Inhibition of human SIK2 assessed as percent of control at 2000 nM by KINOMEscan assay relative to control; set-up: scale not given: the % may be the effect or the level left
[25] = target: Serine/threonine-protein kinase 35 (Homo sapiens) (UniProt Q8TDR2); assay: Inhibition of human STK35 assessed as percent of control at 2000 nM by KINOMEscan assay relative to control; set-up: scale not given: the % may be the effect or the level left
[26] = target: Testis-specific serine/threonine-protein kinase 1 (Homo sapiens) (UniProt Q9BXA7); assay: Inhibition of human TSSK1B assessed as percent of control at 2000 nM by KINOMEscan assay relative to control; set-up: scale not given: the % may be the effect or the level left
[27] = target: Wee1-like protein kinase (Homo sapiens) (UniProt P30291); assay: Inhibition of human WEE1 assessed as percent of control at 2000 nM by KINOMEscan assay relative to control; set-up: scale not given: the % may be the effect or the level left
[28] = target: Wee1-like protein kinase 2 (Homo sapiens) (UniProt P0C1S8); assay: Inhibition of human WEE2 assessed as percent of control at 2000 nM by KINOMEscan assay relative to control; set-up: scale not given: the % may be the effect or the level left
[29] = target: Serine/threonine-protein kinase 32A (Homo sapiens) (UniProt Q8WU08); assay: Inhibition of human YANK1 assessed as percent of control at 2000 nM by KINOMEscan assay relative to control; set-up: scale not given: the % may be the effect or the level left
4T1 = assay: Antitumor activity against murine 4T1 cells xenografted in mouse assessed as suppression of tumor volume at 25 mg/kg, po administered twice a day; format: functional, organism-based
[30] = target: Cyclin-dependent kinase 19 (Homo sapiens) (UniProt Q9BWU1); settings: INHIBITOR, dose 2000.0 nM
Description: Inhibition of human CDK19 at 2000 nM by KINOMEscan assay

Casein kinase I isoform alpha-like (Homo sapiens), sequence (Q8N752 whole entry, canonical isoform): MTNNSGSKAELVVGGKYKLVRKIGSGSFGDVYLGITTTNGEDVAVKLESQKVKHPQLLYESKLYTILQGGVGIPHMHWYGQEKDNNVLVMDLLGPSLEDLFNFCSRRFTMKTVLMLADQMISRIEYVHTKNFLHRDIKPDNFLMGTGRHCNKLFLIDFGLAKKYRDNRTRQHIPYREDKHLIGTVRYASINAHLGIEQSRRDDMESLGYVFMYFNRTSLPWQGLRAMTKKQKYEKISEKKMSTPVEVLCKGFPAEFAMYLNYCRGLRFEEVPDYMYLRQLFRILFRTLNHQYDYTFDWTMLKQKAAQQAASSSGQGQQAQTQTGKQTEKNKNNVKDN
Serine/threonine-protein kinase DCLK1 (Homo sapiens), sequence (O15075 whole entry): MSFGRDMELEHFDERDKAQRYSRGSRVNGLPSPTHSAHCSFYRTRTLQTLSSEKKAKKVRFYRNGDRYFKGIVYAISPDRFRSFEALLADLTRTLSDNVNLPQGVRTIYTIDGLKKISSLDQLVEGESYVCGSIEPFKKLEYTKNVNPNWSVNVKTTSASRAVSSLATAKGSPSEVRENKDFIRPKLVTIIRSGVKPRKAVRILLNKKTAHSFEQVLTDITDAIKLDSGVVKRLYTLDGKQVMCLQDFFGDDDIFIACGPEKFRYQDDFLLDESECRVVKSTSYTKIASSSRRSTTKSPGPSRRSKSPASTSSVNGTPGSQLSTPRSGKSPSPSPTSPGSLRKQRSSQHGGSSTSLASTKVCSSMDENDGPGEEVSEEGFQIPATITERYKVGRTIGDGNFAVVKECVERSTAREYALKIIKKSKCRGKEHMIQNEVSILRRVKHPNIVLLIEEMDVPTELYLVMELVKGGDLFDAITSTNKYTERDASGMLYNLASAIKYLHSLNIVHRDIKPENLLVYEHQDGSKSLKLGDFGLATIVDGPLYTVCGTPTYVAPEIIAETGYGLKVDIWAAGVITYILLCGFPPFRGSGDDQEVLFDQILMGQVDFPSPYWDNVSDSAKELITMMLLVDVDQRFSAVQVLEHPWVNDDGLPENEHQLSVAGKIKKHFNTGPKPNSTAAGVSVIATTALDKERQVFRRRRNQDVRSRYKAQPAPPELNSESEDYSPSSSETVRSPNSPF
Testis-specific serine/threonine-protein kinase 1 (Homo sapiens), sequence (Q9BXA7 whole entry): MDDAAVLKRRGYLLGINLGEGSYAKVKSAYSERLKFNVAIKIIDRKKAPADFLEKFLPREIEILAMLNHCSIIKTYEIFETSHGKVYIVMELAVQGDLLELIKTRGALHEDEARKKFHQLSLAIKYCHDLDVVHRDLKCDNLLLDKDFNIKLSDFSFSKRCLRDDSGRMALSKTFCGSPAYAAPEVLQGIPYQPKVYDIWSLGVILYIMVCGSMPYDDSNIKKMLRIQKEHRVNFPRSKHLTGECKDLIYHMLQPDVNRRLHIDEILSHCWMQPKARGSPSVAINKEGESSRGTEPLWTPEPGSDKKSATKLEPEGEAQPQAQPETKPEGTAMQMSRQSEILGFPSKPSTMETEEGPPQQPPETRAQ
Serine/threonine-protein kinase MAK (Homo sapiens), sequence (P20794 whole entry): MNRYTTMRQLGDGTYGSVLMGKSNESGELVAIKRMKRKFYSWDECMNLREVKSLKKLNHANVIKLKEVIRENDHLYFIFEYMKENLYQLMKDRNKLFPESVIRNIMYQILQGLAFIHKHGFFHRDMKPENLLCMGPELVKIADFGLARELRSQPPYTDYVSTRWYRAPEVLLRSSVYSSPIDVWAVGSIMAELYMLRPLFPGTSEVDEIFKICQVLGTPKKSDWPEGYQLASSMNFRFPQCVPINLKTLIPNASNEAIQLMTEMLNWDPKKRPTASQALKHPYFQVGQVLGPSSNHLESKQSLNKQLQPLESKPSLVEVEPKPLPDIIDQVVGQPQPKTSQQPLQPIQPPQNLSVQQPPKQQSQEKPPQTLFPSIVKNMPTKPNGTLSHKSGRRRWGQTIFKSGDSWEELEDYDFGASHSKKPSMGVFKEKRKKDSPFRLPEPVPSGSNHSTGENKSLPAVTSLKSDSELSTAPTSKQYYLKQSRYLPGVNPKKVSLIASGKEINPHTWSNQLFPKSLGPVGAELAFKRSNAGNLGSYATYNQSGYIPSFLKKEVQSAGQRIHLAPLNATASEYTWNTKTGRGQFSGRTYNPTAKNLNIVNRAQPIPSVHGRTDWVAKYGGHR
Protein kinase C theta type (Homo sapiens), sequence (Q04759 whole entry, looked up): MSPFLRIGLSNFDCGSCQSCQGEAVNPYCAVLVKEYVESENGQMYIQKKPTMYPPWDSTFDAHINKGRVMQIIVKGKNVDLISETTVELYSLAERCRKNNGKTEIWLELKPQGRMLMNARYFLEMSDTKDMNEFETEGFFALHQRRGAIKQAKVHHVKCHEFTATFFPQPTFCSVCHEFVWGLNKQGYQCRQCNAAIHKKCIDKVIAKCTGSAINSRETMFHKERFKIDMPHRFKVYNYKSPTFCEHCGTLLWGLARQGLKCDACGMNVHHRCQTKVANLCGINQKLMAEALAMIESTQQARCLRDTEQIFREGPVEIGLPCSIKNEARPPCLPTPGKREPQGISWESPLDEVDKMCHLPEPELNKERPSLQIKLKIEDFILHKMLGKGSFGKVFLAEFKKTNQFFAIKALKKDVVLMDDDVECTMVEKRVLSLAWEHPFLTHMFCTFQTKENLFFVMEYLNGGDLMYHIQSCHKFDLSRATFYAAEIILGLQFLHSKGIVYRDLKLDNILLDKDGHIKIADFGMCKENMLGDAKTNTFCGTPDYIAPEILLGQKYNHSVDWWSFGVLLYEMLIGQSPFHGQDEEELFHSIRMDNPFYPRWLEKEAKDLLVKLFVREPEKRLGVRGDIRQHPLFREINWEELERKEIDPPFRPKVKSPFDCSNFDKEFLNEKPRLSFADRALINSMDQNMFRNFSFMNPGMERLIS
Serine/threonine-protein kinase 35 (Homo sapiens), sequence (Q8TDR2 whole entry): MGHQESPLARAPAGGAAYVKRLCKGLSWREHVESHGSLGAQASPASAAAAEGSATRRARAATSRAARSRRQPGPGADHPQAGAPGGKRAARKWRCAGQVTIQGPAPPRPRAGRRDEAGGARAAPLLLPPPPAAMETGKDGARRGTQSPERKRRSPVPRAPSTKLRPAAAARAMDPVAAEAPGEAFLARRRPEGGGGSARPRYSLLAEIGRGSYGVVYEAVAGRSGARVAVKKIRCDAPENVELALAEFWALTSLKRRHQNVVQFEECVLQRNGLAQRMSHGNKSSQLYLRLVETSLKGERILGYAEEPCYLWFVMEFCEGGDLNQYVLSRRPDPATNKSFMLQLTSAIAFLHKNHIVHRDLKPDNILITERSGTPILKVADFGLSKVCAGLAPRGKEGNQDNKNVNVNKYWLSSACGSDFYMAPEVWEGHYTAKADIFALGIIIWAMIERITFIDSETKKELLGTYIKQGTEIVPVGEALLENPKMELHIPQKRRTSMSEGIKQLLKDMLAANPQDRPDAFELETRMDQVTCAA
Wee1-like protein kinase 2 (Homo sapiens), sequence (P0C1S8 whole entry, looked up): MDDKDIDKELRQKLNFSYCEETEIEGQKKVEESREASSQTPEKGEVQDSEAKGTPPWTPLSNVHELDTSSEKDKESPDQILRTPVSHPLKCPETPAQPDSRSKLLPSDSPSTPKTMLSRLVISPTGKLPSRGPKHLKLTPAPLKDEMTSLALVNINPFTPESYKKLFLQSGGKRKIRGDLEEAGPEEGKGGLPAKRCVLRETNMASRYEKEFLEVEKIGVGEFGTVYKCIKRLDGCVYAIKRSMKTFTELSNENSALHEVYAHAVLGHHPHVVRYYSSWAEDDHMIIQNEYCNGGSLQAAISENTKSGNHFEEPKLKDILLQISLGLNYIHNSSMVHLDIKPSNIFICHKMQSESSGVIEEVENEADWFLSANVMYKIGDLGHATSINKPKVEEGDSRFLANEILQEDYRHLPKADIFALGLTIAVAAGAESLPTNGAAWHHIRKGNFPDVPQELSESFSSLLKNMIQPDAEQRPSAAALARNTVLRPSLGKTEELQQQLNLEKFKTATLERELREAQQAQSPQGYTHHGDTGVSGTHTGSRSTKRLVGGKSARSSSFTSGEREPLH
Serine/threonine-protein kinase PLK3 (Homo sapiens), sequence (Q9H4B4 whole entry, looked up): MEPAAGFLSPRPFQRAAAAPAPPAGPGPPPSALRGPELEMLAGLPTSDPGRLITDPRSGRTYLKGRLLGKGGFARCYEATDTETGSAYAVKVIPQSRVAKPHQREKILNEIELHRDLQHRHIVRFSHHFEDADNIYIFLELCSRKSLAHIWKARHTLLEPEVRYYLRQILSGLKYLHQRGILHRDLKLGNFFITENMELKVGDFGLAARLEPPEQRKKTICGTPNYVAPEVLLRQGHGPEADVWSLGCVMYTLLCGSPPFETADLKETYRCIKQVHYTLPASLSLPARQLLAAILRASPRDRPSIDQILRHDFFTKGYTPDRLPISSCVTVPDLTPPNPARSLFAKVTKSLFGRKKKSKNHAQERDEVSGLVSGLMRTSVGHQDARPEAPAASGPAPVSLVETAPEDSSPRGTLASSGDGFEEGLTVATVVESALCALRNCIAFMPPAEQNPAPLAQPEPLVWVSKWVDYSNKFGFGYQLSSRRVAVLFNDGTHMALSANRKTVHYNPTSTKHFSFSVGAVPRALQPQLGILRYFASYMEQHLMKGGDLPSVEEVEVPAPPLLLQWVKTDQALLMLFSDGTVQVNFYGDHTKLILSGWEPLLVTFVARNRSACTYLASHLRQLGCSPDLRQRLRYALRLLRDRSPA
Calcium/calmodulin-dependent protein kinase type 1D (Homo sapiens), sequence (Q8IU85 whole entry, looked up): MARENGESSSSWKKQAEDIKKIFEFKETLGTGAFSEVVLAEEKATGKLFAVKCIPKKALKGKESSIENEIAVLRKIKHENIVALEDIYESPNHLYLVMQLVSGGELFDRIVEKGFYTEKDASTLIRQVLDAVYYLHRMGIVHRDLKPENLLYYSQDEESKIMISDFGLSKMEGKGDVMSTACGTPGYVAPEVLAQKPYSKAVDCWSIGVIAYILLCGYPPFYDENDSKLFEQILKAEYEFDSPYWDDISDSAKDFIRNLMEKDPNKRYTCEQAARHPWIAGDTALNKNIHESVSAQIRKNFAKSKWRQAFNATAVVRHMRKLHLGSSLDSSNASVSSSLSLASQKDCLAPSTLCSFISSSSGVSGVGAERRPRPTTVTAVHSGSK

For `CN(C)C(=O)c1ccc(N2CCCN(c3ccnc4sc(C(N)=O)c(N)c34)CC2)cc1`, the Activity [1] was 98% and 99%, the Activity [2] was 100% and the Activity [3] was 87% and 93%. The Activity [4] was 100% and 92%, the Activity [5] was 51% and 65% and the Activity [6] was 67%. The Activity ([6]; INHIBITOR) was 37%, the Activity [7] was 100% and 89% and the Activity [8] was 100%. The Activity [9] was 93% and 89%, the Activity [10] was 100% and the Activity [11] was 100%. The Activity [12] was 98% and 87%, the Activity [13] was 57% and 82% and the Activity [14] was 91% and 98%. The Activity [15] was 100% and 87%, the Activity [16] was 100% and 91% and the Activity [17] was 68%. For the same compound, the Activity ([17]; INHIBITOR) was 47%, the Activity [18] was 96% and 100% and the Activity [19] was 94% and 97%. The Activity [20] was 96% and 91%, the Activity [21] was 86% and 90% and the Activity [22] was 90% and 87%. The Activity [23] was 89% and 97%, the Activity [24] was 96% and 100% and the Activity [25] was 87% and 93%. For the same compound, the Activity [26] was 80% and 99%, the Activity [27] was 100% and 88% and the Activity [28] was 97% and 88%. For the same compound, the Activity [29] was 89% and 97%, the Activity (4T1) was “Active” and the inhibition [30] was > 65%.
